Test results reported in US20260042764A1, “COMPOSITIONS AND METHODS FOR INHIBITION OF KRAS” (TheRas, Inc., priority 2022, published 2026).
pIC50: −log10 of the molar value.

Legend:
[1] = molecular target: T1, Avi-KRAS G12V (1-169) GppNHp/RAF1 RBD-3xFLAG (52-151) (Homo sapiens, UniProt P01116, G12V); assay: Raf1-KRAS G12V-GppNHP disruption HTRF assay (Biological Example 1); type: binding; conditions: KRAS G12V, GppNHp-loaded; Table 11
T1 construct: Avi-KRAS G12V (1-169)
How it was run: (§1)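 Compound disruption of KRAS-GppNHp/RAF1 RBD binding read by HTRF after two sequential 1 h room-temperature incubations (protein mix, then detection reagents), shaken at 700 rpm. Buffer Tris pH 7.5 with MgCl2, BSA, Tween and 10% DMSO; results given as percent activity relative to DMSO (100%).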

A549 cells (KRAS G12S) = assay: 3D Cell viability assay in A549 cells (Biological Example 6); type: cell-based; conditions: Homo sapiens; A549 (KRAS G12S) spheroids, 72 hours
Description: (§2) Biological Example 6: 3D Cell viability assay in AsPC-1, SW1900, HPAC, Capan-2, RKN, H358, HCT116, KP-2, H1573, A549, MKN1, and HT1080 cells
(§3) The inhibition of cellular viability as a result of test compound treatment in a spheroid assay was measured using the CellTiter-Glow 3D Cell Viability Assay (Promega).
(§4) On Day 1, 1000 cells per well were seeded in 150 μL of complete growth media supplemented with 10% fetal bovine serum (FBS) and incubated at 37° C., in the presence of 5% CO2 in 96-well ultra-low attachment microplates (Corning) for 48 hours undisturbed to allow spheroids to form.
(§5) Following spheroid formation, cells were treated with compounds diluted in DMSO at 0.25% final DMSO concentration. Compounds were dosed in a 9-point concentration curve with three-fold dilution between concentrations. Cells were incubated in the presence of compound for 72 hours at 37° C., in the presence of 5% CO2.
(§6) Following this incubation period, the kit-provided CTG reagent was allowed to equilibrate for 30 minutes at room temperature, 150 μL of equilibrated CTG reagent was added to each well, and the plate was sealed before shaking at 250 rpm for 10 minutes at room temperature to lyse the cells, 150 μL of lysate per well was transferred to a 96-well plate and luminescence was read on a CLARIOstar plate reader.
(§7) Data was imported into the Prism software package (Graphpad) and EC50 values were calculated using the log (inhibitor) vs, response—variable slope (Four parameters) model.

H358 cells (KRAS G12C) = assay: 3D Cell viability assay in H358 cells (Biological Example 6); type: cell-based; conditions: Homo sapiens, NCI-H358; H358 (KRAS G12C) spheroids, 72 hours
Description: as §2, §3, §4, §5, §6, §7

SW1900 cells (KRAS G12D) = assay: 3D Cell viability assay in SW1900 cells (Biological Example 6); type: cell-based; conditions: Homo sapiens; SW1990 (text: SW1900, KRAS G12D) spheroids, 72 hours
Description: as §2, §3, §4, §5, §6, §7

GP2d cells (KRAS G12D) = assay: Cell-based pERK HTRF assay in GP2d cell (Biological Example 2); conditions: GP2d, GP2d (KRAS G12D) cells
How it was run: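 Phospho-ERK in lysed cells was detected by HTRF using Eu cryptate and d2 antibodies, read between 4 and 24 h at room temperature. Prior to lysis, KRAS G12D GP2d cells, seeded the day before in DMEM with 10% FBS, were exposed to compounds for 60 min. Compounds were tested as 9-point half-log curves from 1 μM or 100 nM top, with 0.25% DMSO.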

HCT116 cells (KRAS G13D) = assay: 3D Cell viability assay in HCT116 cells (Biological Example 6); type: cell-based; conditions: Homo sapiens, HCT-116; HCT116 (KRAS G13D) spheroids, 72 hours
Description: as §2, §3, §4, §5, §6, §7

[2] = molecular target: T2, Avi-KRAS WT (1-169) GppNHp/RAF1 RBD-3xFLAG (52-151) (Homo sapiens, UniProt P01116); assay: Raf1-KRAS WT-GppNHP disruption HTRF assay (Biological Example 1); type: binding; conditions: KRAS WT, GppNHp-loaded; Table 11
T2 construct: Avi-KRAS WT (1-169)
T2 sequence (P01116 1-169 isoform P01116-2): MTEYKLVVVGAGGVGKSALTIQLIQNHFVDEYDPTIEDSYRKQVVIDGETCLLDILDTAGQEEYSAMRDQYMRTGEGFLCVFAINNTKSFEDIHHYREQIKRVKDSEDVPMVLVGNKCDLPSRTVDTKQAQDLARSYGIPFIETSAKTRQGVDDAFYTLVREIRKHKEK
How it was run: as §1

HPAC cells (KRAS G12D) = assay: 3D Cell viability assay in HPAC cells (Biological Example 6); type: cell-based; conditions: Homo sapiens, HPAC, 72 h, HPAC (KRAS G12D) spheroids
Description: as §2, §3, §4, §5, §6, §7

[3] = molecular target: T3, Avi-KRAS G12R (1-169) GppNHp/RAF1 RBD-3xFLAG (52-151) (Homo sapiens, UniProt P01116, G12R); assay: Raf1-KRAS G12R-GppNHP disruption HTRF assay (Biological Example 1); type: binding; conditions: KRAS G12R, GppNHp-loaded; Table 11
T3 construct: Avi-KRAS G12R (1-169)
T3 sequence (P01116 1-169 isoform P01116-2 G12R): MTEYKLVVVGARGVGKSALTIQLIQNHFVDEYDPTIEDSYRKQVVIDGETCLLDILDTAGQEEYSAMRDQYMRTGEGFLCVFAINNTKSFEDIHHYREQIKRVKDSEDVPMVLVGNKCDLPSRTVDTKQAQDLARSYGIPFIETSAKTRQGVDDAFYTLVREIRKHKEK
How it was run: as §1

HT1080 cells (NRAS) = assay: 3D Cell viability assay in HT1080 cells (Biological Example 6); type: cell-based; conditions: Homo sapiens, HT-1080; HT1080 (NRAS) spheroids, 72 hours
Description: as §2, §3, §4, §5, §6, §7

H1573 cells (KRAS G12A) = assay: 3D Cell viability assay in H1573 cells (Biological Example 6); type: cell-based; conditions: Homo sapiens, NCI-H1573; H1573 (KRAS G12A) spheroids, 72 hours
Description: as §2, §3, §4, §5, §6, §7

[4] = molecular target: T4, Avi-KRAS G12D (1-169) GppNHp/RAF1 RBD-3xFLAG (52-151) (Homo sapiens, UniProt P01116, G12D); assay: Raf1-KRAS G12D-GppNHP disruption HTRF assay (Biological Example 1); type: binding; conditions: KRAS G12D, GppNHp-loaded; Table 11
T4 construct: Avi-KRAS G12D (1-169)
T4 sequence (P01116 1-169 isoform P01116-2 G12D): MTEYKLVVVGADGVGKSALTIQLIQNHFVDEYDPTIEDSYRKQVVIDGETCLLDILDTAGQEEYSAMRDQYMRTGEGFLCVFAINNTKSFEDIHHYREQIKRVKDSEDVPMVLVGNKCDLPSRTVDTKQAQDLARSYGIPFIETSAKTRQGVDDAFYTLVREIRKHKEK
How it was run: as §1

[5] = molecular target: T5, Avi-KRAS G12V (2-169) GTP/RAF1 RBD-3xFLAG (51-131) (Homo sapiens, UniProt P01116, G12V); assay: Raf1-KRAS G12V-GTP disruption HTRF assay (Biological Example 3); type: binding; conditions: KRAS G12V, GTP-loaded
T5 construct: Avi-KRAS G12V (2-169)
T5 sequence (P01116 2-169 isoform P01116-2 G12V): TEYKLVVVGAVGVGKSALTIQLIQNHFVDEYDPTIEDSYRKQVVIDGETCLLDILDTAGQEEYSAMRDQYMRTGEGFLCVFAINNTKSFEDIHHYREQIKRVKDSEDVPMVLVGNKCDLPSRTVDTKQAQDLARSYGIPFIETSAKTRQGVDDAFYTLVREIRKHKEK
How it was run: (§8)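 Each KRAS-GTP/RAF1 RBD complex at 50 nM, with 75 nM 3xFLAG-RAF1 RBD (51-131)-Avi, in 50 mM Tris pH 7.5, 100 mM NaCl, 5 mM MgCl2, 0.1% BSA, 0.01% Tween 20, 10% DMSO. Compounds titrated from 30 μM, 10-point 3x series; 1 h at room temperature with shaking. HTRF read, activity as percent of DMSO.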

[6] = molecular target: T6, Avi-KRAS G12C (2-169) GTP/RAF1 RBD-3xFLAG (51-131) (Homo sapiens, UniProt P01116, G12C); assay: Raf1-KRAS G12C-GTP disruption HTRF assay (Biological Example 3); type: binding; conditions: KRAS G12C, GTP-loaded
T6 construct: Avi-KRAS G12C (2-169)
T6 sequence (P01116 2-169 isoform P01116-2 G12C): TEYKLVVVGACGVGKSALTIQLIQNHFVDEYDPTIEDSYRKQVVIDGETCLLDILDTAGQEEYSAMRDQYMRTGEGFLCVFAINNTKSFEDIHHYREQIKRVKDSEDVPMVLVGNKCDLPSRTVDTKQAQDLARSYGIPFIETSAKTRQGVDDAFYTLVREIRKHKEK
How it was run: as §8

[7] = molecular target: T7, Avi-KRAS WT (2-169) GTP/RAF1 RBD-3xFLAG (51-131) (Homo sapiens, UniProt P01116); assay: Raf1-KRAS WT-GTP disruption HTRF assay (Biological Example 3); type: binding; conditions: KRAS WT, GTP-loaded
T7 construct: Avi-KRAS WT (2-169)
T7 sequence (P01116 2-169 isoform P01116-2): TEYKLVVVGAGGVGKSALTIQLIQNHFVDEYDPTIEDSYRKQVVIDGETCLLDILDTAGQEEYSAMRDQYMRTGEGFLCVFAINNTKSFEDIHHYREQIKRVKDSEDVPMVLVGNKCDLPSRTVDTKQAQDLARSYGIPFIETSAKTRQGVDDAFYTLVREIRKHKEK
How it was run: as §8

[8] = molecular target: T8, Avi-KRAS G12D (2-169) GTP/RAF1 RBD-3xFLAG (51-131) (Homo sapiens, UniProt P01116, G12D); assay: Raf1-KRAS G12D-GTP disruption HTRF assay (Biological Example 3); type: binding; conditions: KRAS G12D, GTP-loaded
T8 construct: Avi-KRAS G12D (2-169)
T8 sequence (P01116 2-169 isoform P01116-2 G12D): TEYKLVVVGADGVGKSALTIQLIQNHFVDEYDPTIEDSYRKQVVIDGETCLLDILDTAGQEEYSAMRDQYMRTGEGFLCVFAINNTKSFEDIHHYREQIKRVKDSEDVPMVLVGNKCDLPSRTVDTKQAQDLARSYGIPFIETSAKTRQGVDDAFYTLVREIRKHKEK
How it was run: as §8

SW620 cells (KRAS G12V) = assay: Cell-based pERK HTRF assay in SW620 cell (Biological Example 4); conditions: Homo sapiens, SW-620, SW620 (KRAS G12V) cells
How it was run: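 SW620 (KRAS G12V) cells seeded at 3×10^4/well in RPMI, 10% FBS, then treated next day for 4 h with a 9-point half-log series from 1 μM top (0.25% DMSO). Lysates analyzed for pERK by HTRF (Eu cryptate/d2 antibodies, 4–24 h at room temperature), excitation 320 nm, emission 615 nm.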

T1 sequence (P01116 1-169 isoform P01116-2 G12V): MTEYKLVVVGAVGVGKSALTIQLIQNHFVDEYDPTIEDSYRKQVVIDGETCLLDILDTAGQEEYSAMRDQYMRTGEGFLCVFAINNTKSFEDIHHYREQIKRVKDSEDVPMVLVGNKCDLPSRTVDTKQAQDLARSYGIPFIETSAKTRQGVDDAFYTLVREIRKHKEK

| SMILES | pIC50 [1] | pIC50 (A549 cells (KRAS G12S)) | pIC50 (H358 cells (KRAS G12C)) | pIC50 (SW1900 cells (KRAS G12D)) | pIC50 (GP2d cells (KRAS G12D); pERK HTRF) | pIC50 (HCT116 cells (KRAS G13D)) | pIC50 [2] | pIC50 (HPAC cells (KRAS G12D)) | pIC50 [3] | pIC50 (HT1080 cells (NRAS)) | pIC50 (H1573 cells (KRAS G12A)) | pIC50 [4] | pIC50 [5] | pIC50 [6] | pIC50 [7] | pIC50 (GP2d cells (KRAS G12D)) | pIC50 [8] | pIC50 (SW620 cells (KRAS G12V)) |
| --- | --- | --- | --- | --- | --- | --- | --- | --- | --- | --- | --- | --- | --- | --- | --- | --- | --- | --- |
| CN(C)c1nc(OC[C@@]23CCCN2C[C@H](F)C3)nc2c(F)c(-c3ccc(F)c4sc(N)c(C#N)c34)c(C(F)(F)F)cc12 [Compound 153] | 6.00 to 7.00 | ≥ 7.00 | ≥ 7.00 | 6.00 to 7.00 | > 7.00 | 6.00 to 7.00 | 6.00 to 7.00 | 6.00 to 7.00 | 6.00 to 7.00 | < 6.00 | 6.00 to 7.00 | > 7.00 | – | – | – | – | – | – |
| CCN(c1nc(OC[C@@]23CCCN2C[C@H](F)C3)nc2c(F)c(-c3ccc(F)c4sc(N)c(C#N)c34)c(C(F)(F)F)cc12)[C@H]1CCN(C(=O)OC2CCOCC2)[C@@H]1C (atropisomer, axis not shown) [Compound 825] | – | – | – | – | – | – | – | – | – | – | – | – | 6.00 to 7.00 | 6.00 to 7.00 | 6.00 to 7.00 | > 7.00 | 6.00 to 7.00 | > 7.00 |
| CCN(c1nc(OC[C@@]23CCCN2C[C@H](F)C3)nc2c(F)c(-c3ccc(F)c4sc(N)c(C#N)c34)c(C(F)(F)F)cc12)[C@H]1CCCN(C)C1=O (atropisomer, axis not shown) [Compound 967] | – | – | – | – | – | – | – | – | – | – | – | – | 5.00 to 6.00 | 5.00 to 6.00 | 5.00 to 6.00 | > 7.00 | 6.00 to 7.00 | > 7.00 |
